Experimental data from patent US10682362B2, “Treatments and diagnostics for cancers” (Wayne State University, priority 2015, dated 2020).
Where two headings read alike, the source gives them in different places. One block for each compound: values may come before it. Where a SMILES comes first, the peptide text is derived from it. The star is where a group is joined. Cbz = O=C(OCc1ccccc1)*

Key:
AR-V7 protein [1] = conditions: 22Rv1 cells, 20 μM Gal; 40 μM calpeptin or PD 66 h; 50 μM ALLM or pan-caspase inhibitor up to 72 h
Description: Western blotting with anti-N20/AR antibody to examine levels of AR and AR-V7 proteins in various prostate cancer cell lines. […] This was followed by Western blotting with specific AR-V7 antibody, with Actin as a loading control.
Western blotting. (a, b) AR-V7 and AR protein levels determined by AR-V7 specific antibody and N20 antibody, respectively. (c) PARP/p89 is a caspase-3 cleavage fragment while PARP/p65 is a calpain cleavage product. (d) Caspase-3 cleavage fragment of Spectrin α2/p120, and a 150 fragment by either caspase-3 or calpain cleavage. (e) Autolysis of calpain small subunit (Cal Sm) to p28 fragment. (f) Calpain cleavage fragment of Calpastatin/p70. […] Caspase-3 activity assay.
In C, (a) Cell lysates were derivatized with 2,4-dinitrophenylhydrazine (DNPH), followed by Western blotting to determine the levels of oxidized proteins (Oxi-P). Actin was used a load control (b). AR-V7 levels were determined by AR-V7 specific antibody (c). PARP/p89 is caspase-3 cleavage fragment while PARP/p65 is calpain cleavage product (d). (e) Autolysis of calpain small subunit (Cal Sm) to p28 fragment. (f) Actin, loading control.

AR-V7 protein [2] = test: Western blotting of AR-V7 in nuclear and cytosolic fractions of 22Rv1 cells; type: cell-based; conditions: for rescue of Gal-induced nuclear AR-V7 loss: androgen-starved 22Rv1 cells, 20 μM Gal plus 40 μM calpeptin or 20 μM Z-VAD
Description: Nuclear fractions were isolated and separated by Western blotting to determine AR-V7 levels. Actin was used as a loading control.

AR-V7 = conditions: 5 μM of MG132; cited from earlier work
proteasome [3] = conditions: cited from earlier work
calpain [4] = conditions: cited from earlier work
[5] = system: full length AR (AR-FL) protein; test: Western blotting of full length AR (anti-AR N20) in 22Rv1 cells; type: cell-based
22Rv1 cells [6] = test: cell proliferation by MTT in 22Rv1 cells; type: cell-based; conditions: Gal alone, 24 h
[7] = system: CRPC with C-terminal AR loss; conditions: Phase 2 ARMOR2; cited from earlier work
[8] = system: BTZ-resistant MM 8826 cells; test: cell proliferation by MTS in BTZ-resistant MM cells; type: cell-based; conditions: Gal alone at 10 or 20 μM, 24 h
Method: FIGS. 13A-C. […] Cell proliferation was determined by MTS. […] Cell death was determined by detection of PARP cleavage. […] Actin was used as loading control.
8826-7BR is a multiple myeloma cell line developed resistance to bortezomib. […] This finding has high translational potential to clinics.

purified 20S proteasome = purified 20S proteasome (Homo sapiens, UniProt P28072+P28074+Q99436); test: proteasome activities of purified 20S proteasome; type: biochemical; conditions: 15 min
Method: (§1) FIGS. 10A-10E. […] Purified 20S proteasome was used a control; BG, background (10D).
(§2) Then deubiquitinase (DUBs) activity associated with the 19S proteasome was determined by using the purified 26S proteasome.

[9] = system: oxidized proteins (Oxi-P); test: oxidized proteins (DNPH derivatization, Western blotting) in 22Rv1 cells; type: cell-based; conditions: 20 μM Gal
Method: (§3) FIGS. 11A-11D. […] Actin was used a load control (b). […] (f) Actin, loading control.
(§4) Sustained DUBs inhibition was detected for up to 48 h (FIG. 11A). […] AR-V7 protein level remained subtle changes up to 56 h and decreased after 64-68 h, and completely depleted after 72 h (FIG. 11C, c). […] Consistently, caspase-3-specific cleavage fragments, 89 kD fragment of PARP (PARP/p89) were also detected between 48 and 72 h (FIG. 11C, d). Calpain activation is associated with self-autolysis of its small subunit. […] This finding has important clinical significance.

proteasome [10] = molecular target: T1, proteasome (Homo sapiens, UniProt P28072+P28074+Q99436); test: cellular proteasomal CT-like, PGPH-like and T-like activities in 22Rv1 cells; type: cell-based; parameters: endogenous in cells; host or cells: 22Rv1; conditions: for inhibition at 20 µM: 22Rv1, 22Rv1 cells, 20 μM Gal
T1 sequence (P28074 60-263): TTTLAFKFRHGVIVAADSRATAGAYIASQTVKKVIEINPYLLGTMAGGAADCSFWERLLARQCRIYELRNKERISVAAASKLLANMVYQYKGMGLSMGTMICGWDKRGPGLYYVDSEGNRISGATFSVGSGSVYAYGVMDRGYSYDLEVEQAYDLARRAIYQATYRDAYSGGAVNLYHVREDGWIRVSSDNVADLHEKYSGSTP
T1 sequence (P28072 1-239): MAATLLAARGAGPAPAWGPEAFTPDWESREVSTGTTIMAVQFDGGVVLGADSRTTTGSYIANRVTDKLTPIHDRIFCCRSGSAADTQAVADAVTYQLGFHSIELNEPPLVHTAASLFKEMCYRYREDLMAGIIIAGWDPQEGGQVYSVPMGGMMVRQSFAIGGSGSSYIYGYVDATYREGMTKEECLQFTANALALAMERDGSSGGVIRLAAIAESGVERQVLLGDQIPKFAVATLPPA
T1 sequence (Q99436 44-277): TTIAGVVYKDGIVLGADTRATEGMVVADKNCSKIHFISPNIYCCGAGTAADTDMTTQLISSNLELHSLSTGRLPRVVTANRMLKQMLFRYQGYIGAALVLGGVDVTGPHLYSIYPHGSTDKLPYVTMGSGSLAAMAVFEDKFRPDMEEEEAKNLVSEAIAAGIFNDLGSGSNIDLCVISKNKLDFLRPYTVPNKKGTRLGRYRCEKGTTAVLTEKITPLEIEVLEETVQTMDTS
Description: as §3

calpain [11] = test: calpain activation by cleavage fragments (Western blotting) in 22Rv1 cells; type: cell-based; conditions: 20 μM Gal, same time points as p28 (48 to 72 h)
22Rv1 cells [12] = test: morphological changes and crystal violet staining of 22Rv1 cells; type: cell-based; conditions: bortezomib 2.5 or 5 nM, Gal 20 μM, 24 h and 48 h
Description: In 12C, cells were fixed with formalin, and then stained with violet overnight.

[13] = system: 19S proteasome-associated DUB; test: DUBs activity of purified 26S proteasome (Ub-AMC substrate); type: biochemical
Method: as §1, §2

proteasome [14] = molecular target: T1, proteasome; test: cellular proteasomal activities in VCaP cells; type: cell-based; parameters: endogenous in cells; conditions: 5-20 μM Gal, 72 h
Description: Therefore, Gal-induced proteasome inhibition occurs prior to activation of calpain/caspases and loss of AR-V7 protein (FIGS. 4 vs. 2).

purified 26S proteasome = purified 26S proteasome (Homo sapiens, UniProt P28072+P28074+Q99436); test: proteasome activities of purified 26S proteasome; type: biochemical; conditions: 15 min
Method: as §1, §2

proteasome [15] = test: proteasome CT-like activity in protein extract of 22Rv1 cells; type: biochemical; conditions: high concentrations (50 or 100 μM)
caspase-3 = test: Caspase-3 activity assay in 22Rv1 cells; type: cell-based; conditions: 20 μM Gal
DUBs = test: DUB activity in 22Rv1 cells; type: cell-based; conditions: 20 μM Gal
Method: as §3, §4

metastatic CRPC [16] = conditions: cited from earlier work
metastatic CRPC [17] = conditions: phase III clinical trials; versus 10.9 months placebo; cited from earlier work

Compound: CCCC[C@@H](C=O)NC(=O)[C@H](CC(C)C)NC(=O)OCc1ccccc1 [calpeptin, Z-Leu-Nle-CHO]
rescue of Gal-induced AR-V7 loss by inhibitor (AR-V7 protein [1]): rescue AR-V7 loss partially
block of Gal-induced nuclear AR-V7 depletion (AR-V7 protein [2]; 22Rv1 cells, 20 μM Gal plus 40 μM calpeptin, 56 h and 72 h): could be blocked
rescue of Gal-induced nuclear AR-V7 loss (AR-V7 protein [2]): partially rescued AR-V7 loss by Gal

Compound: CC(C)C[C@@H](C=O)NC(=O)[C@H](CC(C)C)NC(=O)[C@H](CC(C)C)NC(=O)OCc1ccccc1 [MG132] (Cbz-Leu-Leu-Leu-aldehyde)
inhibition of Gal-induced AR-V7 degradation (AR-V7): could be inhibited
IC50 (proteasome [3]): 100 nM
IC50 (calpain [4]): 1200 nM

Compound: O=C(O)/C(S)=C/c1ccc(I)cc1 [PD150606]
rescue of Gal-induced AR-V7 loss by inhibitor (AR-V7 protein [1]): rescue AR-V7 loss partially

Compound: Z-VAD
rescue of Gal-induced nuclear AR-V7 loss (AR-V7 protein [2]): able to block the Gal-induced AR-V7 depletion

inhibition at 20 µM (proteasome [10]; after 64 h): > 50%
inhibition at 20 µM (proteasome [10]; at 48 h): 30%
inhibition at 20 µM (proteasome [10]; between 2-24 h): 10%
proteasomal CT-like activity (proteasome [10]; 22Rv1 cells, 5-20 μM Gal, 24 h): dose-dependent decrease
proteasomal PGPH-like activity (proteasome [10]; 22Rv1 cells, 5-20 μM Gal, 24 h): dose-dependent decrease
proteasomal trypsin (T)-like activity (proteasome [10]; 22Rv1 cells, 5-20 μM Gal, 24 h): but not trypsin (T)-like activities
three proteasomal activities (proteasome [14]): dose-dependent inhibition
Compound: C[C@]12CC[C@H](O)CC1=CC[C@@H]1[C@@H]2CC[C@]2(C)C(n3cnc4ccccc43)=CC[C@@H]12 [Gal, (3S,8R,9S,10R,13S,14S)-17-(benzimidazol-1-yl)-10,13-dimethyl-2,3,4,7,8,9,11,12,14,15-decahydro-1H-cyclopenta[a]phenanthren-3-ol]
time after which full length AR (AR-FL) protein decreased ([5]; 20 μM Gal for up to 72 h): ≥ 48 h
AR-FL protein expression in cytosolic and nuclear fractions ([5]; 20 μM Gal, anti-AR N20 antibody): a decrease in both cytosolic and nuclear AR-FL protein expression
cell proliferation (MTT) (22Rv1 cells [6]): did not inhibit cell proliferation
response of Abi- and Enz refractory CRPC patients with C-terminal AR loss [7]: remain responsive
sensitivity of BTZ-resistant MM cells (MTS) [8]: sensitive to Gal treatment alone
three proteasomal activities (CT, PGPH and T-like) (purified 20S proteasome): unable to block all the three proteasomal activities
sustained accumulation of oxidized proteins detected up to [9]: up to 72 h
time before which oxidized proteins accumulated [9]: < 2 h
proteasomal CT-like activities, time course (proteasome [10]; 22Rv1 cells, 20 μM Gal up to 72 h): inhibited in a time-dependent fashion, but later than DUBs inhibition
all three proteasomal activities (proteasome [10]; 22Rv1 cells, 5-20 μM Gal, 48 h): decreased in a Gal dose-dependent fashion
calpain cleavage product Calpastatin/p70 (calpain [11]): detected at the same time points
morphological changes / cell death (22Rv1 cells [12]): did not cause apparent morphological changes
DUBs activity of purified 26S proteasome ([13]; Gal 20 μM, 15 min): suppressed
DUBs activity of purified 26S proteasome ([13]; Gal at a low dose (10 μM)): could efficiently inhibit DUBs activity
three proteasomal activities (CT, PGPH and T-like) (purified 26S proteasome): unable to block all the three proteasomal activities
CT-like activity of the proteasome (proteasome [15]): could inhibit the CT-like activity
time after which caspase-3 activity increased (caspase-3): ≥ 24 h
time at which caspase-3 activity reached the highest (caspase-3): 48 h
caspase-3 activation (caspase-3; after 48 h): 5 fold
earliest time of DUBs inhibition (DUBs): ≤ 2 h
sustained DUBs inhibition detected up to (DUBs): up to 48 h

Compound: CSCC[C@@H](C=O)NC(=O)[C@H](CC(C)C)NC(=O)[C@H](CC(C)C)NC(C)=O [ALLM, N-acetyl-L-leucyl-L-leucyl-L-methioninal] (Ac-Leu-Leu-Met-aldehyde)
rescue of Gal-induced AR-V7 loss by inhibitor (AR-V7 protein [1]): rescue AR-V7 loss partially

proteasomal CT-like activity (proteasome [10]; 22Rv1 cells, BTZ alone, 48 h): caused proteasomal CT-like inhibition
proteasomal chymotrypsin (CT)-like activity (proteasome [10]; 22Rv1 cells, BTZ alone, 72 h): dose-dependent inhibition
Compound: CC(C)C[C@H](NC(=O)[C@H](Cc1ccccc1)NC(=O)c1cnccn1)B(O)O [BTZ]
morphological changes / cell death (22Rv1 cells [12]): did not cause apparent morphological changes

Compound: CNC(=O)c1ccc(N2C(=S)N(c3ccc(C#N)c(C(F)(F)F)c3)C(=O)C2(C)C)cc1F [Enzalutamide]
patients with PSA level decreased more than 50% (metastatic CRPC [16]; chemo-naive patients): 40/65
patients with PSA level decreased more than 50% (metastatic CRPC [16]; chemotherapy-treated patients): 38/75
lived longer than those taking placebo (metastatic CRPC [16]; interim analysis): approximately 5 months

Compound: CC(=O)O[C@H]1CC[C@@]2(C)C(=CC[C@@H]3[C@@H]2CC[C@]2(C)C(c4cccnc4)=CC[C@@H]32)C1 [abiraterone acetate]
median survival (metastatic CRPC [17]): 14.8 months
